Here are results for 1 compound from US7074595B2, “General means of labeling protein by using wheat embryo cell-free protein synthesis system” (CellFree Sciences Co., Ltd., priority 2000, dated 2006).

Common to all, as to assay type: biochemical
Settings in all cases: NADPH

The target in assay [1] is T1, dihydrofolate reductase (DHFR), Heavy Hydrogen-Labeled DHFR (20 kinds of heavy hydrogen-labeled L-amino acids) (Escherichia coli, UniProt P0ABQ4).
T1 construct: made in house; host or cells: wheat embryo extract cell-free protein synthesis (dialysis type)
T1 sequence (P0ABQ4 1-159): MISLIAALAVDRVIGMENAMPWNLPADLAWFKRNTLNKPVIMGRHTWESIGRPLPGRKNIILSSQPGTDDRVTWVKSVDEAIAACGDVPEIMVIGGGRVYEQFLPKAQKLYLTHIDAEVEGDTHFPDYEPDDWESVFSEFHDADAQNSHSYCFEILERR
Nature of the assay: enzymatic properties of DHFR (Table 2): Michaelis constant and maximum velocity, Heavy Hydrogen-Labeled DHFR. As to the method:
(§1) Purification of GFP and measurement of its activity by analysis of fluorescence spectrum using a fluorospectrophotometer were carried out in accordance with a method by Deschamps, et al. [Deschamps, J. R. et al., (1995) Protein Expression and Purification, 6, 555–558]. In the measurement of fluorescence spectrum, a fluorophotometer of type RF-5000 by Shimadzu was used. DHFR activity was measured by a method of Stanley, et al. [Methods. Enzymol. 18, 195–199 (1971)].
With regard to the wheat embryo, that being contaminated with substantially no endosperm component prepared by the method mentioned in Example 1 was used. Preparation of an extract from wheat embryo was carried out by the exactly same method as Example 1 except that the solution for extraction and the solution used for gel filtration contained 20 kinds of heavy hydrogen-labeled L-amino acids instead of 20 kinds of selenomethionine-containing L-amino acids. Concentration of the prepared extract was adjusted to 170˜250 A260 nm (A260/A280=1.5).
Although the composition of the protein synthesis reaction solution is as same as that described in Example 1, it contains 20 kinds of heavy hydrogen-labeled L-amino acids instead of 20 kinds of selenomethionine-containing L-amino acids.
Then enzymatic properties of the purified heavy hydrogen-labeled DHFR were biochemically investigated by the same manner as in Example 1. […]

In assay [2] the target is T2, dihydrofolate reductase (DHFR), Natural-Type DHFR (Escherichia coli, UniProt P0ABQ4).
T2 construct: made in house; host or cells: wheat embryo extract cell-free protein synthesis (dialysis type)
T2 sequence (P0ABQ4 1-159): T1 sequence (P0ABQ4 1-159)
Nature of the assay: enzymatic properties of DHFR (Table 2): Michaelis constant and maximum velocity, Natural-Type DHFR. Here is the method:
as §1
Then enzymatic properties of the purified heavy hydrogen-labeled DHFR were biochemically investigated by the same manner as in Example 1. As will be apparent from Table 2, both Vmax and Michaelis constant (Km) to NADPH which are parameters for enzymatic chemical property of natural-type DHFR and heavy hydrogen-labeled DHFR show no difference between both enzymes. Thus, it became clear that DHFR comprising heavy hydrogen-labeled amino acids maintained nearly the same enzymatic activity as the natural-type DHFR.

Assay [3] addresses T3, dihydrofolate reductase (DHFR), natural-type methionine-containing (Met-DHFR) (Escherichia coli, UniProt P0ABQ4).
T3 construct: made in house; host or cells: wheat embryo extract cell-free protein synthesis (dialysis type)
T3 sequence (P0ABQ4 1-159): T1 sequence (P0ABQ4 1-159)
Kind of assay: enzymatic properties of DHFR (Table 1): Michaelis constant and maximum velocity, Met-DHFR. Here is the method: as §1
(§2) Then enzymatic properties of the selenomethionine-containing proteins purified as such were investigated biochemically. Fluorescence emission spectrum of a certain concentration of the purified GFP preparation shown in FIG. 2 excited at the wavelength of 395 nm was measured within a range of 410 nm to 600 nm and the result is shown in FIG. 3. As will be apparent from FIG. 3, there is no difference between the fluorescence emission spectra of GFP [(A) in FIG. 3] and selenomethionine GFP [(B) in FIG. 3]. Thus, the conclusion is that the change in GFP activity by substituting methionine residue with selenomethionine is not higher than the usual measurement sensitivity. […]

Assay [4] addresses T4, dihydrofolate reductase (DHFR), selenomethionine-containing (SeMet-DHFR) (Escherichia coli, UniProt P0ABQ4).
T4 construct: made in house; host or cells: wheat embryo extract cell-free protein synthesis (dialysis type)
T4 sequence (P0ABQ4 1-159): T1 sequence (P0ABQ4 1-159)
Kind of assay: enzymatic properties of DHFR (Table 1): Michaelis constant and maximum velocity, SeMet-DHFR. Here is the method: as §1, §2

With `NC(=O)C1=CN([C@@H]2O[C@H](COP(=O)(O)OP(=O)(O)OC[C@H]3O[C@@H](n4cnc5c(N)ncnc54)[C@H](OP(=O)(O)O)[C@@H]3O)[C@@H](O)[C@H]2O)C=CC1` [NADPH, nicotinamide adenine dinucleotide phosphate (NADPH) of a reduced type], the Vmax in assay [1] is reported as 0.261 A560 nm/μg/min; in assay [2], 0.127 A560 nm/μg/min. Besides, the “maximum velocity Vmax” value was 0.143 A560 nm/μg/min in assay [3] and 0.137 A560 nm/μg/min in assay [4].
